According to US11236055B2 (Venenum Biodesign, LLC, priority 2016, dated 2022):

Experiments:
human TGR5 receptor = molecular target: T1, human TGR5 receptor (Homo sapiens, UniProt Q8TDU6); assay: Human TGR5 cAMP production assay; format: cell-based; conditions: human TGR5, luminescent cAMP assay; coded A-D; read-out: Human TGR5 Lum. cAMP Activity (EC50)
T1 construct: host or cells: CHO-K1 (hTGR5-CHO cells)
T1 sequence (Q8TDU6 1-330): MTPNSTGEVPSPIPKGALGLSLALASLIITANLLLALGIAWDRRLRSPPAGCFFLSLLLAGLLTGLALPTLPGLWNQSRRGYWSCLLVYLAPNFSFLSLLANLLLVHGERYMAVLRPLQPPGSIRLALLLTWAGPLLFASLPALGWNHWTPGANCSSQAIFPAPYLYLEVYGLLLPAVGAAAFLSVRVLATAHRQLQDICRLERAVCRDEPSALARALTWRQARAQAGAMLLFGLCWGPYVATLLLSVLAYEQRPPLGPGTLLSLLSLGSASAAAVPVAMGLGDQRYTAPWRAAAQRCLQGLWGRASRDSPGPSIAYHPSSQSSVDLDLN
Protocol: Human TGR5 cAMP Production Assay
We evaluated the Compounds of the present invention for their ability to induce cAMP production using CHO-K1 cells overexpressing the human TGR5 receptor. CHO-K1 cells stably expressing human TGR5 receptor (accession number NM_001077194.1 (hTGR5) (i.e., hTGR5-CHO cells) were purchased from DiscoveRx Corporation (Fremont, Calif.). hTGR5-CHO cells were grown in Ham's F-12 media supplemented with 10% Fetal Bovine Serum, 1% Penicillin-Streptomycin, 2 mM L-Alanine L-Glutamine (Glutamax), and 800 μg/mL Geneticin selection. The cAMP production assay was performed using DiscoveRx's cAMP XS+ kit (Catalog No. 90-0075XL) following the manufacturer's recommended protocol. Briefly, hTGR5-CHO cells were harvested using non-enzymatic cell dissociation buffer (Sigma-Aldrich, St. Louis, Mo.) and 1×10^6 cells were combined in Phosphate-Buffered Saline (PBS) to a final volume of 496 μL to which 4 μL of 125 mM IBMX (Sigma-Aldrich, St. Louis, Mo.) was added. 500 μL of cAMP antibody solution was added to the harvested cells and incubated at room temperature for 20 min.
Test compounds were serially diluted (half-log dilutions) in DMSO and then further diluted 1:50 in PBS, 10 mM HEPES buffer. 2 μL of serially diluted compound was added to a 384-well low volume plate (Greiner; cat #784075) and centrifuged briefly. 2 μL of the cell/cAMP antibody mixture was then added to each compound-containing well and allowed to incubate at room temperature for one hour. Following incubation, the XS+ kits' ED/Lysis/CL Substrate Working Solution was prepared following the manufacturer's recommended protocol and 4 μL was added to each well of the plate. The plate was then incubated for one hour at room temperature. Following incubation, 4 μL of Enzyme Acceptor reagent was added to the plate and allowed to incubate overnight at room temperature. Luminescent signal was then detected using the Viewlux instrument (Perkin-Elmer, Waltham, Mass.).
(§1) In Table 33, EC50 values for both human and mouse cells were determined according to the TGR5 cAMP assays described above.

mouse TGR5 receptor = molecular target: T2, mouse TGR5 receptor (Mus musculus, UniProt Q80SS6); assay: Mouse TGR5 cAMP production assay (HTRF, Cisbio cAMP HiRange); format: cell-based; conditions: HEK293-EBNA cells overexpressing mouse TGR5, HTRF cAMP HiRange; coded A-D
T2 construct: expressed in transfected cells; host or cells: HEK293-EBNA (293 c18, ATCC CRL10852), Hygromycin B selection
T2 sequence (Q80SS6 1-329): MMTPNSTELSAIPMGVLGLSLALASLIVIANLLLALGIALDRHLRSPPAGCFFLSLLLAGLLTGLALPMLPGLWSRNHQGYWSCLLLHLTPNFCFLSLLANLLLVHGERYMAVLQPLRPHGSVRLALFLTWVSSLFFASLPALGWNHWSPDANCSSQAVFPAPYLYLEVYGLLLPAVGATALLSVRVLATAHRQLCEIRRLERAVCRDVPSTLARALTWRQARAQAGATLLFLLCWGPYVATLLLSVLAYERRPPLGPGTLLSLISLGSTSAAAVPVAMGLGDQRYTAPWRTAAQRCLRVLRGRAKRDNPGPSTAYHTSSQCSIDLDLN
Text: Mouse TGR5 cAMP Production Assay
We evaluated compounds of the present invention for their ability to induce cAMP production in HEK-EBNA cells overexpressing the mouse TGR5 receptor. Human embryonic kidney cells (HEK293-EBNA) stably expressing mouse TGR5 receptor were established using the following procedure. Specifically, a commercially-obtained gene encoding mouse TGR5 (accession number BC116914) from Thermo Scientific (Waltham, Mass.) was cloned into an episomal expression vector. The resulting expression plasmid was then transfected into 293 c18 (ATCC® CRL10852™) cells, which express the Epstein-Barr virus nuclear antigen EBNA1 and can support the replication of episomal vectors. Selection for the plasmid was maintained with Hygromycin B. Cells were cultured and maintained in DMEM (Sigma; cat #6429) supplemented with 10% Fetal Bovine Serum, 1% penicillin/streptomycin, 2 mM L-alanine L-glutamine (GlutaMax), and 250 μg/mL Hygromycin.
2. HTRF cAMP Production Assay
In this second cAMP production assay, the cAMP production was measured in 384-well low volume plates (Greiner; cat #784075) using the Cisbio™ cAMP HiRange HTRF Assay Kit (Cisbio) according to the manufacturer's protocol.
Briefly, compounds were initially diluted in 100% DMSO (12-point serial dilution by half logs) in a 96-well plate and then were further diluted 1:50 in PBS containing 10 mM HEPES. 5 μL were transferred to the 384-well assay plate in duplicate. HEK293-EBNA cells stably overexpressing mouse TGR5 were harvested using non-enzymatic cell dissociation buffer (Sigma), spun down, then resuspended in serum-free DMEM with 500 μM IBMX at a density of 500,000 cells/mL. 5 μL of cell suspension was transferred to each well of the 384-well assay plate already containing compound. The plate was covered and incubated at room temperature for 1 hour. The d2-cAMP and anti-cAMP Ab-cryptate stock solutions were prepared as per kit instructions. Then 5 μL of each conjugate (d2 and cryptate) were added to each well of the assay plate. The plate was covered and incubated at room temperature for 1 hour. The plate was read on an Envision™ plate reader (Perkin Elmer).
as §1

SMILES	EC50 (human TGR5 receptor) [nM]	EC50 (mouse TGR5 receptor) [nM]
Cc1cnccc1-c1cccc([C@H](CC(=O)N(C)C)NS(=O)(=O)c2ccccc2C(F)(F)F)c1 [Compound 5BB, (S)-N,N-dimethyl-3-(3-(3-methylpyridin-4-yl)phenyl)-3-(2-(trifluoromethyl)phenylsulfonamido)propanamide]	100 to 999	100 to 999
Cc1cnccc1-c1cccc([C@H](CCCC#N)NS(=O)(=O)c2ccccc2C(F)(F)F)c1 [Compound 5BC, (S)-N-(4-cyano-1-(3-(3-methylpyridin-4-yl)phenyl)-butyl)-2-(trifluoromethyl)benzenesulfonamide]	< 100	< 100
Cc1cnccc1-c1cccc(CCNS(=O)(=O)c2ccccc2C(F)(F)F)c1 [Compound 5BD, N-(3-(3-methylpyridin-4-yl)phenethyl)-2-(trifluoromethyl)benzenesulfonamide]	100 to 999	1000 to 30000
COC(=O)c1cnccc1-c1cccc(C(C)(C)NS(=O)(=O)c2ccccc2C(F)(F)F)c1 [Compound 6, Methyl 4-(3-(2-(2-(trifluoromethyl)phenylsulfonamido)propan-2-yl)phenyl)nicotinate]	< 100	1000 to 30000
Cc1cncnc1-c1cccc(C(C)(C)NS(=O)(=O)c2ccccc2C(F)(F)F)c1 [Compound 6AA, N-(2-(3-(5-methylpyrimidin-4-yl)phenyl)propan-2-yl)-2-(trifluoromethyl)benzenesulfonamide]	1000 to 30000	1000 to 30000
CN(C)c1cc(-c2cccc(C(C)(C)NS(=O)(=O)c3ccccc3C(F)(F)F)c2)ccn1 [Compound 6AB, N-(2-(3-(2-(dimethylamino)-pyridin-4-yl)phenyl)propan-2-yl)-2-(trifluoromethyl)benzenesulfonamide]	1000 to 30000	1000 to 30000
CCc1cnccc1-c1cccc([C@H](CCCC#N)NS(=O)(=O)c2ccccc2C(F)(F)F)c1 [Compound 6AC, (S)-N-(4-cyano-1-(3-(3-ethylpyridin-4-yl)phenyl)butyl)-2-(trifluoromethyl)benzenesulfonamide]	< 100	< 100
Cc1cnccc1-c1cccc(C(CCC#N)NS(=O)(=O)c2ccccc2C(F)(F)F)c1 (stereo not shown) [Compound 6AD, N-(3-cyano-1-(3-(3-methylpyridin-4-yl)phenyl)-propyl)-2-(trifluoromethyl)benzenesulfonamide]	< 100	100 to 999
Cc1cnsc1-c1cccc([C@H](C)NS(=O)(=O)c2cccc(Cl)c2C)c1 [Compound 7AA, (S)-3-chloro-2-methyl-N-(1-(3-(4-methylisothiazol-5-yl)-phenyl)ethyl)benzenesulfonamide]	1000 to 30000	> 30000
Cc1nccc(-c2cccc([C@H](C)NS(=O)(=O)c3cccc(Cl)c3C)c2)c1C [Compound 7AB, (S)-3-chloro-N-(1-(3-(2,3-dimethylpyridin-4-yl)phenyl)ethyl)-2-methylbenzenesulfonamide]	100 to 999	1000 to 30000
Cc1cnccc1-c1cccc(C2(NS(=O)(=O)c3cccc(Cl)c3C)COC2)c1 [Compound 7AC, 3-chloro-2-methyl-N-(3-(3-(3-methylpyridin-4-yl)phenyl)oxetan-3-yl)benzenesulfonamide]	< 100	< 100
Cc1cnccc1-c1cccc([C@H](C)NS(=O)(=O)c2cccc(Cl)c2C)c1 [Compound 7]	< 100	< 100
CC(=O)Nc1cc(-c2cccc(C(C)(C)NS(=O)(=O)c3cccc(C(F)(F)F)c3)c2)ccn1 [Compound 9, N-(4-(3-(2-(3-(trifluoromethyl)phenylsulfonamido)propan-2-yl)phenyl)pyridin-2-yl)acetamide]	1000 to 30000	1000 to 30000
COc1cnccc1-c1cccc(C(C)(C)NS(=O)(=O)c2ccccc2N)c1 [Compound 10, 2-amino-N-(2-(3-(3-methoxypyridin-4-yl)phenyl)propan-2-yl)benzenesulfonamide]	100 to 999	100 to 999
